Assay: photocatalytic hydrogen evolution rate (per 5 mg catalyst); higher = more photocatalytic H2 evolution; extreme values may be limits of the assay
Details: catalyst mass (mg): 5; Pt cocatalyst (wt%): 3; sacrificial medium: triethylamine/methanol/water 1:1:1
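Also: aromatic molecules in triethylamine/methanol/water with Pt photoreduced in situ, irradiated 3 h under a 1 sun AM 1.5G solar simulator (350–1000 nm), H2 quantified by headspace gas chromatography; listed molecule itself used as the photocatalyst at 5 mg per vial.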

| SMILES | photocatalytic hydrogen evolution rate [µmol/h] |
| --- | --- |
| O=C1OC2(c3ccccc31)c1cc(Br)c(O)c(Br)c1Oc1c2cc(Br)c(O)c1Br | 23.9 |
| N#Cc1cccc(-c2cccc(C#N)n2)n1 | 0.0301 |
| CCn1c2ccccc2c2cc(C=O)ccc21 | 2.45 |
| Brc1ccc(Br)nc1 | 0 |
| Cc1ccc(-c2ccc(C=O)cc2)cc1 | 3.39 |
| Brc1ccc2c(c1)sc1cc(Br)ccc12 | 0 |
| N#Cc1ccc(C#N)c(OC(F)(F)F)c1 | 0.153 |
| O=C1Cc2cc(Br)cc(Br)c2N1 | 0 |
| N#CCc1ccc(B(O)O)cc1 | 0 |
| Brc1c2ccccc2c(-c2c3ccccc3c(Br)c3ccccc23)c2ccccc12 | 1.44 |
| COc1ccc(N2C(=O)c3ccc4c5ccc6c7c(ccc(c8ccc(c3c48)C2=O)c75)C(=O)N(c2ccc(OC)cc2)C6=O)cc1 | 0 |
| CCCCCCCCCCCCCCCCCCn1c(=O)c2ccc3sc4ccccc4c4ccc(c1=O)c2c34 | 12.3 |
| N#CCc1ccc(Cl)nc1 | 0 |
| O=Cc1cc(C=O)cc(C=O)c1 | 0.0923 |
| Brc1ccc(C(c2ccc(Br)cc2)(c2ccc(Br)cc2)c2ccc(Br)cc2)cc1 | 0.0679 |
| N#CCC(=O)c1ccc2c(c1)CCCC2 | 0 |
| CCc1ccc(C(=O)CC#N)cc1 | 0.0661 |
| O=[N+]([O-])c1cc(Br)ccc1Br | 0 |
| COC(=O)c1ccc2cc(C(=O)OC)ccc2c1 | 0.0623 |
| O=Cc1ccc(O)c(F)c1 | 0.0382 |
| Brc1ccc2c3ccc(Br)cc3n(-c3ccccc3)c2c1 | 0.0572 |
| c1ccc(N(c2ccccc2)c2cc(N(c3ccccc3)c3ccccc3)cc(N(c3ccccc3)c3ccccc3)c2)cc1 | 0 |
| N#Cc1ccc(C#N)nc1 | 0.0617 |
| N#CCc1ccc(CC#N)cc1 | 0 |

| SMILES | photocatalytic hydrogen evolution rate [µmol/h] |
| --- | --- |
| O=Cc1ccc(N(c2ccccc2)c2ccccc2)cc1 | 0.317 |
| COc1ccc(B(O)O)cc1 | 0 |
| Cc1cc(C#N)ccc1N | 0.0133 |
| COC(=O)c1cc(C(=O)OC)cc(C(=O)OC)c1 | 0.0198 |
| Nc1c(Br)ccc(Br)c1N | 0 |
| O=C(O)c1ccc(-c2ccc(-c3cc(-c4ccc(-c5ccc(C(=O)O)cc5)cc4)cc(-c4ccc(-c5ccc(C(=O)O)cc5)cc4)c3)cc2)cc1 | 0 |
| Cc1cc(N)ccc1-c1ccc(N)cc1C | 0.055 |
| Brc1nnc(Br)s1 | 0 |
| N#Cc1cc(N)cc(Cl)c1 | 0.000715 |
| c1ccc(-c2ccc(-c3ccc(-c4ccc(-c5ccccc5)cc4)cc3)cc2)cc1 | 0 |
| O=Cc1cc(Br)cc(Br)c1 | 0.234 |
| C#Cc1ccccc1C#N | 0 |
| Nc1ccc(N)c(S(=O)(=O)O)c1 | 0 |
| CCN1C(=O)C(=O)c2cc(Br)cc(Br)c21 | 0.105 |
| Nc1ccc(C(c2ccc(N)cc2)(c2ccc(N)cc2)c2ccc(N)cc2)cc1 | 0 |
| c1ccc2c(c1)CCc1ccccc1N2 | 0 |
| CC1(C)OB(c2cc(B3OC(C)(C)C(C)(C)O3)cc(B3OC(C)(C)C(C)(C)O3)c2)OC1(C)C | 0.0124 |
| OB(O)c1ccc(B(O)O)cc1 | 0.053 |
| Cc1cc(N)ccc1C#N | 0 |
| Cc1cc(C#N)ncc1Br | 0 |
| CC(C)(C)c1cc2ccc3c(Br)cc(Br)c4ccc(c1)c2c34 | 0.121 |
| c1ccc(-c2ccc(-c3ccc(-c4ccc(-c5ccc(-c6ccccc6)cc5)cc4)cc3)cc2)cc1 | 0 |
| N#CCc1ccccc1C#N | 0 |
| O=Cc1cc(Br)cc(C=O)c1 | 0.831 |

| SMILES | photocatalytic hydrogen evolution rate [µmol/h] |
| --- | --- |
| Brc1ccc2ccccc2c1-c1c(Br)ccc2ccccc12 | 0 |
| CCOC(=O)c1ccc(C(=O)OCC)nc1 | 0.0237 |
| Brc1ccc(-c2ccc(Br)cc2)cc1 | 0 |
| NNC(=O)COc1ccc(Br)cc1Br | 0 |
| N#Cc1cc(O)cc(C#N)c1 | 2.14 |
| Cn1cc(Br)nc(Br)c1=O | 0 |
| O=C1CCC(c2ccccc2)CC1 | 0 |
| Nc1ccc(S(=O)(=O)c2ccc(N)cc2)cc1 | 0.00797 |
| Nc1cc(C(=O)O)cc(C(=O)O)c1 | 0 |
| O=C1NC(=O)c2cccc3cccc1c23 | 24.5 |
| Nc1ccc(N)cc1 | 0 |
| O=c1c2ccccc2n(-c2ccccc2)c2ccccc12 | 3.33 |
| N#CC1=C(C#N)SC(C#N)=C(C#N)S1 | 0 |
| O=C1c2ccc(Br)cc2C(=O)c2ccc(Br)cc21 | 0 |
| Brc1cccc(-c2cccc(Br)n2)n1 | 0 |
| CC(=O)c1cc(C(C)=O)cc(C(C)=O)c1 | 1.98 |
| O=C1c2cccc([N+](=O)[O-])c2C(=O)c2c1cccc2[N+](=O)[O-] | 0 |
| O=Cc1cc(O)cc(F)c1 | 0 |
| O=C(O)c1ccc(-c2ccc(C(=O)O)cc2)cc1 | 0.0704 |
| Oc1ccc2cc(Br)ccc2c1-c1c(O)ccc2cc(Br)ccc12 | 0 |
| Nc1ccc(-c2ccc(-c3ccc(N)cc3)cc2)cc1 | 0 |
| Nc1ccc(-c2ccc(N)c(F)c2)cc1F | 0 |
| COc1cc(C=O)cc(OC)c1 | 5.78 |
| Brc1ccc(Br)c2nccnc12 | 1.37 |

| SMILES | photocatalytic hydrogen evolution rate [µmol/h] |
| --- | --- |
| O=Cc1cccc(-c2ccccn2)c1 | 2.43 |
| COC(=O)c1ccc(C#N)cc1 | 0 |
| O=C1OC2(c3ccccc31)c1cc(I)c(O)c(I)c1Oc1c2cc(I)c(O)c1I | 28.3 |
| O=Cc1cc(F)c(O)c(F)c1 | 0.191 |
| O=C(c1ccc(Br)cc1)c1ccc(Br)cc1 | 6.77 |
| O=C(O)C1CCN(C(=O)c2ccccc2)CC1 | 0 |
| Nc1c(F)c(F)c(-c2c(F)c(F)c(N)c(F)c2F)c(F)c1F | 0 |
| OCCCCc1ccc2ccc3cccc4ccc1c2c34 | 0.855 |
| OC1(c2ccccc2)c2cc(Br)ccc2-c2ccc(Br)cc21 | 0.101 |
| O=c1cc(Br)[nH]c(Br)c1 | 0 |
| Cc1ncc[nH]1 | 0 |
| N#Cc1ccc(-c2ccc(C#N)c(O)c2)cc1 | 8.34 |
| N#Cc1cnc(N)c(C#N)c1 | 0.468 |
| Ic1ccc(I)cc1 | 0 |
| O=Cc1ccc(-c2ccc(F)cc2)cc1 | 5.25 |
| COC(=O)c1cccc(C(=O)OC)c1 | 0.023 |
| CN1CCN(c2ccc(C=O)cc2)CC1 | 0.409 |
| Fc1c(F)c(F)c(-c2c(F)c(F)c(F)c(F)c2F)c(F)c1F | 0 |
| c1ccc(-c2ccc(-c3nc(-c4ccc(-c5ccccc5)cc4)nc(-c4ccc(-c5ccccc5)cc4)n3)cc2)cc1 | 0.103 |
| COc1cc(Br)cc(OC)c1 | 0.0348 |
| O=Cc1ccc(-c2ccccc2)cc1 | 4.67 |
| O=Cc1c(F)c(F)c(C=O)c(F)c1F | 0.177 |
| Nc1cc(Br)ccc1Br | 0 |
| Nc1ccc(Br)cc1 | 0 |

| SMILES | photocatalytic hydrogen evolution rate [µmol/h] |
| --- | --- |
| O=Cc1ccc(O)cc1O | 0.896 |
| O=Cc1ccc(-c2cncnc2)cc1 | 2.58 |
| Fc1cc(Br)c(F)cc1Br | 0 |
| CC1(C)OB(c2ccc(-n3c4ccccc4c4ccccc43)cc2)OC1(C)C | 0.135 |
| N#Cc1ccc(-c2ccccc2C#N)cc1 | 0 |
| COC(=O)c1cc(Br)oc1Br | 0 |
| c1ccc2c(c1)C1c3ccccc3C2c2ccccc21 | 0.0408 |
| O=Cc1ccc(-c2nc(-c3ccc(C=O)cc3)nc(-c3ccc(C=O)cc3)n2)cc1 | 0.298 |
| O=Cc1ccc(C=O)c([N+](=O)[O-])c1 | 0 |
| O=Cc1ccccc1P(c1ccccc1)c1ccccc1 | 0.079 |
| O=C1OC(=O)c2ccc3c4c(ccc1c24)C(=O)OC3=O | 0.0941 |
| c1cc(-c2nc(-c3ccncc3)nc(-c3ccncc3)n2)ccn1 | 0 |
| O=Cc1cc(O)ccc1O | 0 |
| O=Cc1ccc(C(=O)O)cc1 | 2.34 |
| COC(=O)c1ccc(C(=O)OC)c(N)c1 | 0.0112 |
| Oc1cccc2cccnc12 | 0 |
| Cc1cc(C#N)ccc1C#N | 0 |
| CC1(C)OB(c2ccc(B3OC(C)(C)C(C)(C)O3)c3nsnc23)OC1(C)C | 0 |
| N#Cc1ccc(C=O)cc1F | 0.104 |
| CCOC(=O)c1cncc(C(=O)OCC)c1 | 0.00607 |
| CN1C(=O)c2ccc3c4ccc5c6c(ccc(c7ccc(c2c37)C1=O)c64)C(=O)N(C)C5=O | 0 |
| N#Cc1c(F)c(F)c(F)c(F)c1F | 0.0353 |
| O=Cc1ccc(-n2c3ccccc3c3ccccc32)cc1 | 3.93 |
| O=C1C(Br)=C(Br)C(=O)C(Br)=C1Br | 0 |
